Assay results: patent US20240360165A1, “INHIBITORS OF CYCLIN DEPENDENT KINASE 7 (CDK7)” (Syros Pharmaceuticals, Inc., priority 2016, published 2024)
Like-named read-outs stand apart in the source and are kept apart here.

Legend:
[1] = target: T1, CDK12 (aa686-1082)/Cyclin K complex (Homo sapiens, UniProt Q9NYV4); experiment: CDK12 inhibition assay (Caliper/LabChip EZ Reader kinase assay); assay type: biochemical; details: Table 1, CDK12 (aa686-1082)/Cyclin K 50 nM, ATP 2 mM, 3 hr at 27° C.
T1 construct: CDK12 (aa686-1082)/Cyclin K complex
T1 sequence (Q9NYV4 686-1082, species assumed): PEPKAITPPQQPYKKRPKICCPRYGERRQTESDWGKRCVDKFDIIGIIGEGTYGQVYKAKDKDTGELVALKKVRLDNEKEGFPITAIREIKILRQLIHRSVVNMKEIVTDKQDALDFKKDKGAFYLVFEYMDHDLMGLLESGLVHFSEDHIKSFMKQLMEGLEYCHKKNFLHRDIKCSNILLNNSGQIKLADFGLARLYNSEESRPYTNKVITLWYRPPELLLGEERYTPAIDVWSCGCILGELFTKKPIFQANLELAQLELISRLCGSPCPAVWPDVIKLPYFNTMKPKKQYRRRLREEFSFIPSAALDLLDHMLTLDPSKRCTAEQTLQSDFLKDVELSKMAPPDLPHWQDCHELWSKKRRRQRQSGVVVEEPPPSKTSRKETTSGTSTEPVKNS
T1 sequence (O75909 whole entry partner, species assumed, the tested form may be a part): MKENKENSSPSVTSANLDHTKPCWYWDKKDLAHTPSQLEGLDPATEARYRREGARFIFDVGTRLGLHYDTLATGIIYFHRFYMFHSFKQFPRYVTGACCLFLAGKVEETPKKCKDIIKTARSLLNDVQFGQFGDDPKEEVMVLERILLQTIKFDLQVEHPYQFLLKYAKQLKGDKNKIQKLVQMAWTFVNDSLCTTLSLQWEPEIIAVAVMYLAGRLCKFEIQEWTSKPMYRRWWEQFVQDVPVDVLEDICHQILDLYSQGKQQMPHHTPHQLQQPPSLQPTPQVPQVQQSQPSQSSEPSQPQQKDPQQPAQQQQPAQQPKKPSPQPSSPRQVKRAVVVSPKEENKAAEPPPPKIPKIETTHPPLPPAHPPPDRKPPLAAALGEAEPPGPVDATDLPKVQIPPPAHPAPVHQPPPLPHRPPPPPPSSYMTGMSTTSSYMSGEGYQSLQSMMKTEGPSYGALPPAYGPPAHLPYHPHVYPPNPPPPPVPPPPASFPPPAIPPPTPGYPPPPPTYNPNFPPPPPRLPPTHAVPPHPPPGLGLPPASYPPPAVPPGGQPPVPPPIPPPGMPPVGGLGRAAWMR

[2] = target: CDK9/Cyclin T1 complex (Homo sapiens, UniProt P50750); experiment: CDK9 inhibition assay (Caliper/LabChip EZ Reader kinase assay); assay type: biochemical; details: Table 1, CDK9/Cyclin T1 8 nM, ATP 2 mM, 15 min at 27° C.
CDK9/Cyclin T1 complex, sequence (P50750 whole entry, species assumed): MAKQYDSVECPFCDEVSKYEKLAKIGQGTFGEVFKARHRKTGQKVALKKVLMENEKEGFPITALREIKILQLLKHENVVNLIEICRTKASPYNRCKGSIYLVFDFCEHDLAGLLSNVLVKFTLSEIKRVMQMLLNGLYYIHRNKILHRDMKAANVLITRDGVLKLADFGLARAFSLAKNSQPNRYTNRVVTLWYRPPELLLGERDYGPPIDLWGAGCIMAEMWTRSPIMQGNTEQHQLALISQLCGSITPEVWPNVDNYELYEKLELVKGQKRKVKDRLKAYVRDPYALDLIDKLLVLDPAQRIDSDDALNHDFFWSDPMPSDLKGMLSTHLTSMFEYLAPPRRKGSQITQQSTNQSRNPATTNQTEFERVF
CDK9/Cyclin T1 complex, sequence (O60563 whole entry partner, species assumed): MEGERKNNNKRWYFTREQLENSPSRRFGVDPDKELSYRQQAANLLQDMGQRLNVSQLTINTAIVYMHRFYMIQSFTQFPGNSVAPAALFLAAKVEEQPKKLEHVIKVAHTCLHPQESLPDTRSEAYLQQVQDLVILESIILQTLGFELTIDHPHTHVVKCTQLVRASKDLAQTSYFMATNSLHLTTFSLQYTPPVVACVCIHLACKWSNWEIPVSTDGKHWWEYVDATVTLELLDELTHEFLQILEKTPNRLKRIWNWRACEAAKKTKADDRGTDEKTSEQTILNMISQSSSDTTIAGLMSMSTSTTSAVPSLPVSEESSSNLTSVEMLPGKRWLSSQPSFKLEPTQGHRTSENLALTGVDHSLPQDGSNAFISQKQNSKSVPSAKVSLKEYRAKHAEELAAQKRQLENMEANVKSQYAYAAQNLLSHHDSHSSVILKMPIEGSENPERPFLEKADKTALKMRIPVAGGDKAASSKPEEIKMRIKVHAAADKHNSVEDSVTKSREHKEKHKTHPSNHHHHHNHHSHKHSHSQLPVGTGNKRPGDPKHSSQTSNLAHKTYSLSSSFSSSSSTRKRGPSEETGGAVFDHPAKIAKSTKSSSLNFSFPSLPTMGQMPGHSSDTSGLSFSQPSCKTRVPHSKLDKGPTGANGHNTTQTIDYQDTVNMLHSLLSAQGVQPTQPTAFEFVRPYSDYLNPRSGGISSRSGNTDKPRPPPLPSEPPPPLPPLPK
Procedure, shortened: (§1)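 Activity read as fluorescent peptide conversion on a LabChip EZ Reader. For CDK2/Cyclin E1 (0.5 nM), substrate was 5-FAM-CDK7tide (2 μM) with 2 mM MgCl2; for CDK9/Cyclin T1 (8 nM), 5-FAM-CDK9tide (2 μM) with 10 mM MgCl2.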

[3] = test system: A673 cells; experiment: Inhibition of proliferation of A673 cells (CyQUANT, 72 hour); assay type: cell-based, human; details: A673 cells, 72 hour, CyQUANT, read-out: Inhibition of Proliferation of A673 Cells (calculated IC50)
Procedure, shortened: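 Proliferation read-out by CyQUANT after a 72 h exposure, compounds spanning 4 μM–[…] in half-log steps. A673 cells cultured at 37° C under 5% CO2 in DMEM supplemented with 10% FBS plus 1 mM sodium pyruvate.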

[4] = target: CDK7/Cyclin H/MAT1 complex (Homo sapiens, UniProt P50613); experiment: CDK7 inhibition assay (Caliper/LabChip EZ Reader kinase assay); assay type: biochemical; details: Table 1, CDK7/Cyclin H/MAT1 6 nM, ATP 2 mM, 35 min at 27° C.
CDK7/Cyclin H/MAT1 complex, sequence (P50613 whole entry, species assumed): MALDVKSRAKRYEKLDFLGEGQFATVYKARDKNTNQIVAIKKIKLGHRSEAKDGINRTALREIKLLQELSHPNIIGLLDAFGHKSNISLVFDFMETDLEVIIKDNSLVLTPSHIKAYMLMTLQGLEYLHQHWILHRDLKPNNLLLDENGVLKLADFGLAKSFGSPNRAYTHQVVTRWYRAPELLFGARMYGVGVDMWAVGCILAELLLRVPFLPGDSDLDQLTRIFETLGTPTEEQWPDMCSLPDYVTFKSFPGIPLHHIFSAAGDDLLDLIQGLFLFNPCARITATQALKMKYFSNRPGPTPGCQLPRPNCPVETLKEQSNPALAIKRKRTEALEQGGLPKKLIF
CDK7/Cyclin H/MAT1 complex, sequence (P51946 whole entry partner, species assumed): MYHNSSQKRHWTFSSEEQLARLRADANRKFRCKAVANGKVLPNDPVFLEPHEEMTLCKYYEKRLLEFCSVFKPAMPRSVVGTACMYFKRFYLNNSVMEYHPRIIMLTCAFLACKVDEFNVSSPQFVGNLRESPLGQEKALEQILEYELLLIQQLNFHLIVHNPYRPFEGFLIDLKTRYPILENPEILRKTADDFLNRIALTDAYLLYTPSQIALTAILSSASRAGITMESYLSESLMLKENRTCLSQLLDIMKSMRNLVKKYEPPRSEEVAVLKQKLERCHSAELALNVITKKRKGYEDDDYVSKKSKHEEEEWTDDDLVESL
CDK7/Cyclin H/MAT1 complex, sequence (P51948 whole entry partner, species assumed): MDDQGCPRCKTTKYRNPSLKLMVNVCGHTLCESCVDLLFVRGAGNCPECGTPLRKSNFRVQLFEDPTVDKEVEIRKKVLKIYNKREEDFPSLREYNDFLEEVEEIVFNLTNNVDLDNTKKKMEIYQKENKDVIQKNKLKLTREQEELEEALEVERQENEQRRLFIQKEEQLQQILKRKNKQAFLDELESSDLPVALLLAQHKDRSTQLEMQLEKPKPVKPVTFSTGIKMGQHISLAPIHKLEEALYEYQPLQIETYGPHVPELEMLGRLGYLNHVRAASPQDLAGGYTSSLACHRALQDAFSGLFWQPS
Procedure, shortened: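 A Perkin Elmer Caliper/LabChip EZ Reader (Waltham, MA) platform served as the basis for this CDK7 kinase inhibition assay. The work was carried out by Biortus Biosciences, located in Jiangyin, Jiangsu Province, P.R. of China. Each CDK studied had its own kinase assay, and compounds were evaluated for their ability to block CDK7 activity.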

[5] = test system: HCC70 cells; experiment: Inhibition of proliferation of HCC70 cells (CyQUANT Direct Cell Proliferation Assay, 72 hour); assay type: cell-based, human
Procedure, shortened: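 Human triple-negative breast cancer HCC70 cells cultured at 37° C, 5% CO2, with compound for 72 hour. Anti-proliferative effect read by CyQUANT Direct Cell Proliferation Assay. Dinaciclib, a CDK inhibitor analog and triptolide served as positive controls.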

[6] = target: CDK2/Cyclin E1 complex (Homo sapiens, UniProt P24941); experiment: CDK2 inhibition assay (Caliper/LabChip EZ Reader kinase assay); assay type: biochemical; details: Table 1, CDK2/Cyclin E1 0.5 nM, ATP 2 mM, 35 min at 27° C.
Procedure, shortened: as §1

[7] = Homo sapiens, HCC70, 72 h, read-out: Inhibition of Proliferation of HCC70 Cells (calculated IC50)
[8] = read-out: Inhibition of Proliferation of HCC70 Cells (calculated IC50)

SMILES	IC50 [1] [nM]	IC50 [2] [nM]	IC50 [4] [nM]	IC50 [6] [nM]	IC50 [5, 7] [nM]	IC50 [5, 8] [nM]	other results
CS(=O)(=O)c1c(C#N)ccc2c(-c3nc(N[C@H]4CCCNC4)ncc3Cl)c[nH]c12 [Compound 294, 3-[5-chloro-2-[[(3S)-3-piperidyl]amino]pyrimidin-4-yl]-7-methylsulfonyl-1H-indole-6-carbonitrile]	200 to 5000	200 to 5000	< 20	200 to 5000	< 100		IC50 ([1]; listed as 109): 20 to 200 nM; IC50 ([2]; listed as 109): 200 to 5000 nM; IC50 [3]: 20 to 200 nM; IC50 ([4]; listed as 109): < 20 nM; IC50 ([5]; listed as 109, read-out: Inhibition of Proliferation of HCC70 Cells (calculated IC50)): 100 to 1000 nM; IC50 ([6]; listed as 109): 200 to 5000 nM
OC1CCC(c2cccc3c(-c4nc(N[C@H]5CCCNC5)ncc4C(F)(F)F)c[nH]c23)CC1 (stereo partly drawn) [Compound 185]	200 to 5000	200 to 5000	< 20	20 to 200		< 100	IC50 [3]: < 20 nM
N#C[C@@H]1CCN(C(=O)c2ccc3c(-c4nc(N[C@H]5CCCNC5)ncc4C(F)(F)F)c[nH]c3c2)C1 [Compound 292, (3R)-1-[3-[2-[[(3S)-3-piperidyl]amino]-5-(trifluoromethyl)pyrimidin-4-yl]-1H-indole-6-carbonyl] pyrrolidine-3-carbonitrile]	200 to 5000	200 to 5000	< 20	200 to 5000	100 to 1000		IC50 ([1]; listed as 107): 20 to 200 nM; IC50 ([2]; listed as 107): 200 to 5000 nM; IC50 ([3]; listed as 107): < 20 nM; IC50 ([3]; Homo sapiens, A673, 72 h): 20 to 200 nM; IC50 ([4]; listed as 107): 20 to 200 nM; IC50 ([6]; listed as 107): 200 to 5000 nM
CCc1cnc(N[C@H]2CCCNC2)nc1-c1c[nH]c2c(S(=O)(=O)C(C)C)cccc12 [Compound 356]	> 5000	> 5000	20 to 200	> 5000		100 to 1000	
CP(C)(=O)c1cccc2c(-c3nc(N[C@H]4CCCNC4)ncc3C(F)(F)F)c[nH]c12 (single isomer, unassigned) [Compound 353]	200 to 5000	> 5000	< 20	200 to 5000	< 100		
CC1CCNCC1Nc1ncc(C(F)(F)F)c(-c2c[nH]c3ccccc23)n1 (single isomer, unassigned) [Compound 373]	> 5000	> 5000	20 to 200	> 5000		1000 to 5000	
COC1CCN(C(=O)c2ccc3c(-c4nc(N[C@H]5CCCNC5)ncc4C(F)(F)F)c[nH]c3c2)C1 (single isomer, unassigned) [Compound 281]	200 to 5000	200 to 5000	< 20	200 to 5000	100 to 1000		
CCc1cnc(N[C@H]2CCCNC2)nc1-c1c[nH]c2c(S(C)(=O)=O)cccc12 [Compound 269, (S)-5-ethyl-4-(7-(methylsulfonyl)-1H-indol-3-yl)-N-(piperidin-3-yl)pyrimidin-2-amine]	200 to 5000	200 to 5000	< 20	200 to 5000	100 to 1000		
CNC(=O)c1cccc2c(-c3nc(N[C@H]4CCCNC4)ncc3C(F)(F)F)cn(COC)c12 [Compound 304]	> 5000	> 5000	> 5000	> 5000		1000 to 5000	
CC1(C)CNC[C@@H](Nc2ncc(Cl)c(-c3c[nH]c4c(S(C)(=O)=O)c(C#N)ccc34)n2)C1 [Compound 382, 3-[5-chloro-2-[[(3S)-5,5-dimethyl-3-piperidyl]amino]pyrimidin-4-yl]-7-methylsulfonyl-1H-indole-6-carbonitrile]	200 to 5000	200 to 5000	< 20	200 to 5000	< 100		
O=C(c1ccc2c(-c3nc(N[C@H]4CCCNC4)ncc3C(F)(F)F)c[nH]c2c1)N1CC[C@](O)(C(F)(F)F)C1 (single isomer, unassigned) [Compound 299]	200 to 5000	200 to 5000	< 20	200 to 5000	1000 to 5000		

Second part, led by results:

IC50 [1] [nM]	IC50 [2] [nM]	IC50 [4] [nM]	IC50 [6] [nM]	SMILES	IC50 [5, 7] [nM]	IC50 [5, 8] [nM]	other results
200 to 5000	200 to 5000	20 to 200	200 to 5000	FC(F)(F)c1cnc(N[C@H]2CCCNC2)nc1-c1c[nH]c2cc(-c3ccc4ncsc4c3)ccc12 [Compound 343]		100 to 1000	
200 to 5000	200 to 5000	20 to 200	200 to 5000	O=C1CCc2ccc(-c3ccc4c(-c5nc(N[C@H]6CCCNC6)ncc5C(F)(F)F)c[nH]c4c3)cc2N1 [Compound 334]		100 to 1000	
200 to 5000	200 to 5000	< 20	200 to 5000	FC(F)(F)c1cnc(N[C@H]2CCCNC2)nc1-c1c[nH]c2cc(-c3ccc4[nH]cnc4c3)ccc12 [Compound 313]		100 to 1000	
200 to 5000	200 to 5000	< 20	200 to 5000	Cc1noc(C)c1-c1ccc2c(-c3nc(N[C@H]4CCCNC4)ncc3C(F)(F)F)c[nH]c2c1 [Compound 330]		< 100	
200 to 5000	> 5000	20 to 200	> 5000	CP(C)(=O)c1ccc2c(-c3nc(N[C@H]4CCCNC4)ncc3C(F)(F)F)c[nH]c2c1 [Compound 354]	1000 to 5000		
200 to 5000	200 to 5000	20 to 200	200 to 5000	CC(C)S(=O)(=O)c1ccc2c(-c3nc(N[C@H]4CCCNC4)ncc3C(F)(F)F)c[nH]c2c1 [Compound 346, 4-(6-isopropylsulfonyl-1H-indol-3-yl)-N-[(3S)-3-piperidyl]-5-(trifluoromethyl) pyrimidin-2-amine]	100 to 1000		
200 to 5000	200 to 5000	20 to 200	200 to 5000	CC(=O)NCc1cccc(-c2ccc3c(-c4nc(N[C@H]5CCCNC5)ncc4C(F)(F)F)c[nH]c3c2)c1 [Compound 338]		100 to 1000	
200 to 5000	> 5000	20 to 200	> 5000	FC(F)(F)c1cnc(N[C@H]2CCCNC2)nc1-c1c[nH]c2cc(-c3ccc4c(c3)OCCO4)ccc12 [Compound 342]		1000 to 5000	
200 to 5000	> 5000	< 20	> 5000	Cn1cc(-c2ccc3c(-c4nc(NC5CCCNC5)ncc4C(F)(F)F)c[nH]c3c2)ccc1=O (stereo not drawn) [Compound 321]	100 to 1000		
200 to 5000	200 to 5000	< 20	200 to 5000	CC(=O)c1ccc2c(-c3nc(N[C@H]4CCCNC4)ncc3C(F)(F)F)c[nH]c2c1 [Compound 359, 1-[3-[2-[[(3S)-3-piperidyl]amino]-5-(trifluoromethyl)pyrimidin-4-yl]-1H-indol-6-yl]ethanone]	< 100		
200 to 5000	> 5000	20 to 200	> 5000	CC[C@]1(O)CCN(C(=O)c2ccc3c(-c4nc(N[C@H]5CCCNC5)ncc4C(F)(F)F)c[nH]c3c2)C1 (single isomer, unassigned) [Compound 347]	100 to 1000		
